Data published in US7456167B2, “Cyclopropyl fused indolobenzazepine HCV NS5B inhibitors” (Bristol-Myers Squibb Company, priority 2006, dated 2008).
Like-named read-outs stand apart in the source and are kept apart here.

How the values were obtained:
HCV replicon cells = experiment: HCV replicon FRET assay; format: cell-based; conditions: Hepatitis C virus
Excerpt: FRET Assay Preparation. To perform the HCV FRET screening assay, 96-well cell culture plates were used. The FRET peptide (Anaspec, Inc.) (Taliani et al., Anal. Biochem. 1996, 240, 60-67) contains a fluorescence donor, EDANS, near one end of the peptide and an acceptor, DABCYL, near the other end. The fluorescence of the peptide is quenched by […] resonance energy transfer (RET) between the donor and the acceptor, but as the NS3 protease cleaves the peptide the products are released from RET quenching and the fluorescence of the donor becomes apparent. The assay reagent was made as follows: 5× cell Luciferase cell culture lysis reagent from Promega (#E153A) diluted to 1× with dH2O, NaCl added to 150 mM final, the FRET peptide diluted to 20 uM final from a 2 mM stock.
To prepare plates, HCV replicon cells, with or without a Renilla luciferase reporter gene, were trypsinized and placed into each well of a 96-well plate with titrated test compounds added in columns 3 through 12; columns 1 and 2 contained a control compound (HCV protease inhibitor), and the bottom row contained cells without compound. The plates were then placed in a CO2 incubator at 37° C.
Assays. Subsequent to addition of the test compounds described above (FRET Assay Preparation), at various times the plate was removed and Alamar blue solution (Trek Diagnostics, #00-100) was added per well as a measure of cellular toxicity. After reading in a Cytoflour 4000 instrument (PE Biosystems), plates were rinsed with PBS and then used for FRET assay by the addition of 30 ul of the FRET peptide assay reagent described above (FRET Assay Preparation) per well. The plate was then placed into the Cytoflour 4000 instrument which had been set to 340 excite/490 emission, automatic mode for 20 cycles and the plate read in a kinetic mode. Typically, the signal to noise using an endpoint analysis after the reads was at least three-fold. Alternatively, after Alamar blue reading, plates were rinsed with PBS, 50 ul of DMEM (high glucose) without phenol red was added and plates were then used for luciferase assay using the Promega Dual-Glo Luciferase Assay System.
Compound analysis was determined by quantification of the relative HCV replicon inhibition and the relative cytotoxicity values. To calculate cytoxicity values, the average Alamar Blue fluorescence signals from the control wells were set as 100% non-toxic. The individual signals in each of the compound test wells were then divided by the average control signal and multiplied by 100% to determine […]. To calculate the HCV replicon inhibition values, an average background value was obtained from the two wells containing the highest amount of HCV protease inhibitor at the end of the assay period. These numbers were similar to those obtained from naïve Huh-7 cells.
The background numbers were then subtracted from the average signal obtained from the control wells and this number was used as 100% activity. The individual signals in each of the compound test wells were then divided by the averaged control values after background subtraction and multiplied by 100% to determine percent activity. EC50 values for a protease inhibitor titration were calculated as the concentration which caused a 50% reduction in FRET or luciferase activity. The two numbers generated for the compound plate, percent cytoxicity and percent activity were used to determine compounds of interest for further analysis.

[1] = target: T1, HCV NS5B RdRp genotype 1b (Hepatitis C virus genotype 1b, UniProt Q9WMX2); experiment: Modified HCV NS5B RdRp enzyme assay (preincubation protocol); format: biochemical
T1 construct: The protein was expressed with an 18 amino acid C-terminal truncation to enhance the solubility; made in house; host or cells: E. coli BL21(DE3)
T1 sequence (Q9WMX2 2420-2992): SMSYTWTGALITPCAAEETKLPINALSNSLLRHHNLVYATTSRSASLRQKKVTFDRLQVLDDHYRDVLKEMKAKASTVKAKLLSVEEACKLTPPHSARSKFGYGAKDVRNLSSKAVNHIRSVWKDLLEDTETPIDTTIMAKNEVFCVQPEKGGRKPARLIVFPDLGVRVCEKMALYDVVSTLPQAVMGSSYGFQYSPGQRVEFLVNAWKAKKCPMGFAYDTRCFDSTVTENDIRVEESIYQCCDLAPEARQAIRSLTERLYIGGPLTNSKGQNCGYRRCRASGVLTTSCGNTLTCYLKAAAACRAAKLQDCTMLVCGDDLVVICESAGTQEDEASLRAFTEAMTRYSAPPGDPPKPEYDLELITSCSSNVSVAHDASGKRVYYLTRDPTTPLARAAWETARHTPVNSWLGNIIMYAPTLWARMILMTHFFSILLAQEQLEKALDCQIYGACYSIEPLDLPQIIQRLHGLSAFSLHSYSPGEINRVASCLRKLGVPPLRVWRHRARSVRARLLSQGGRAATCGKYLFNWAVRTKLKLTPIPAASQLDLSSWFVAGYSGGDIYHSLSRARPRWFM
Method: HCV NS5B RdRp cloning, expression, and purification. The cDNA encoding the NS5B protein of HCV, genotype 1b, was cloned into the pET21a expression vector. The protein was expressed with an 18 amino acid C-terminal truncation to enhance the solubility. The E. coli competent cell line BL21(DE3) was used for expression of the protein. Cultures were grown at 37° C. for ˜4 hours until the cultures reached an optical density of 2.0 at 600 nm. The cultures were cooled to 20° C. and induced with 1 mM IPTG. Fresh ampicillin was added to a final concentration of 50 μg/ml and the cells were grown overnight at 20° C.
Cell pellets (3 L) were lysed for purification to yield 15-24 mgs of purified NS5B. The lysis buffer consisted of 20 mM Tris-HCl, pH 7.4, 500 mM NaCl, 0.5% triton X-100, 1 mM DTT, 1 mM EDTA, 20% glycerol, 0.5 mg/ml lysozyme, 10 mM MgCl2, 15 ug/ml deoxyribonuclease I, and Complete TM protease inhibitor tablets (Roche). After addition of the lysis buffer, frozen cell pellets were resuspended using a tissue homogenizer. To reduce the viscosity of the sample, aliquots of the lysate were sonicated on ice using a microtip attached to a Branson sonicator. The sonicated lysate was centrifuged at 100,000×g for 1 hr at 4° C. and filtered through a 0.2 μm filter unit (Corning).
The protein was purified using three sequential chromatography steps: Heparin sepharose CL-6B, polyU sepharose 4B, and Hitrap SP sepharose (Pharmacia). The chromatography buffers were identical to the lysis buffer but contained no lysozyme, deoxyribonuclease I, MgCl2 or protease inhibitor and the NaCl concentration of the buffer was adjusted according to the requirements for charging the protein onto the column. Each column was eluted with a NaCl gradient which varied in length from 5-50 column volumes depending on the column type. After the final chromatography step, the resulting purity of the enzyme is >90% based on SDS-PAGE analysis. The enzyme was aliquoted and stored at −80° C.
Standard HCV NS5B RdRp enzyme assay. HCV RdRp genotype 1b assays were run in a final volume of 60 μl in 96 well plates (Costar 3912). The assay buffer is composed of 20 mM Hepes, pH 7.5, 2.5 mM KCl, 2.5 mM MgCl2, 1 mM DTT, 1.6 U RNAse inhibitor (Promega N2515), 0.1 mg/ml BSA (Promega R3961), and 2% glycerol. All compounds were serially diluted (3-fold) in DMSO and diluted further in water such that the final concentration of DMSO in the assay was 2%. HCV RdRp genotype 1b enzyme was used at a final concentration of 28 nM. A polyA template was used at 6 nM, and a biotinylated oligo-dT12 primer was used at 180 nM final concentration. Template was obtained commercially (Amersham 27-4110). Biotinylated primer was prepared by Sigma Genosys. 3H-UTP was used at 0.6 μCi (0.29 μM total UTP). Reactions were initiated by the addition of enzyme, incubated at 30° C. for 60 min, and stopped by adding 25 μl of 50 mM EDTA containing SPA beads (4 μg/μl, Amersham RPNQ 0007). Plates were read on a Packard Top Count NXT after >1 hr incubation at room temperature.
Modified HCV NS5B RdRp enzyme assay. A modified enzyme assay was performed essentially as described for the standard enzyme assay except for the following: The biotinylated oligo dT12 primer was precaptured on streptavidin-coated SPA beads by mixing primer and beads in assay buffer and incubating at room temperature for one hour. Unbound primer was removed after centrifugation. The primer-bound beads were resuspended in 20 mM Hepes buffer, pH 7.5 and used in the assay at final concentrations of 20 nM primer and 0.67 μg/μl beads. Order of addition in the assay: enzyme (14 nM) was added to diluted compound followed by the addition of a mixture of template (0.2 nM), 3H-UTP (0.6 μCi, 0.29 μM), and primer-bound beads, to initiate the reaction; concentrations given are final. Reactions were allowed to proceed for 4 hours at 30° C.
IC50 values for compounds were determined using seven different [I]. […]

[2] = HCV replicon cells, FRET assay, read-out: EC50
[3] = HCV NS5B RdRp genotype 1b, preincubation protocol, read-out: IC50

| SMILES | EC50 (HCV replicon cells; [2]) [nM] | IC50 [1, 3] [nM] | EC50 (HCV replicon cells) [nM] | IC50 [1] [nM] |
| --- | --- | --- | --- | --- |
| COc1ccc2c(c1)C1CC1(S(=O)(=O)N(C)CCN(C)C)Cn1c-2c(C2CCCCC2)c2ccc(C(=O)O)cc21 (stereo not shown) | 20 to 1000 | 20 to 1000 | – | – |
| CCN1CC2CC1CN2S(=O)(=O)C12CC1c1cc(OC)ccc1-c1c(C3CCCCC3)c3ccc(C(=O)NS(=O)(=O)C(C)C)cc3n1C2 (stereo not shown) | 20 to 1000 | 20 to 1000 | – | – |
| COc1ccc2c(c1)C1CC1(S(=O)(=O)N1CCCC1)Cn1c-2c(C2CCCCC2)c2ccc(C(=O)NS(=O)(=O)N3CCOCC3)cc21 (stereo not shown) | 20 to 1000 | 20 to 1000 | – | – |
| COC[C@@H]1CN(S(=O)(=O)C23CC2c2cc(OC)ccc2-c2c(C4CCCCC4)c4ccc(C(=O)NS(=O)(=O)C(C)C)cc4n2C3)CCO1 (stereo partly shown) | 20 to 1000 | 20 to 1000 | – | – |
| COc1ccc2c(c1)CC(S(=O)(=O)N1CCOCC1)Cn1c-2c(C2CCCCC2)c2ccc(C(=O)NS(=O)(=O)N(C)C)cc21 (stereo not shown) | 20 to 1000 | 20 to 1000 | – | – |
| COc1ccc2c(c1)C1CC1(S(=O)(=O)N1C3CCC1CC3)Cn1c-2c(C2CCCCC2)c2ccc(C(=O)NS(=O)(=O)C(C)C)cc21 (stereo not shown) | – | – | 20 to 1000 | 20 to 1000 |
| COc1ccc2c(c1)C1CC1(S(=O)(=O)N1CC3C[C@H]1CN3C)Cn1c-2c(C2CCCCC2)c2ccc(C(=O)NS(=O)(=O)N(C)C)cc21 (stereo partly shown) | 20 to 1000 | 20 to 1000 | – | – |
| COc1ccc2c(c1)C1CC1(S(=O)(=O)N1C[C@@H](C)N(C)[C@@H](C)C1)Cn1c-2c(C2CCCCC2)c2ccc(C(=O)NS(=O)(=O)N3CCN(C)CC3)cc21 (stereo partly shown) | 20 to 1000 | 20 to 1000 | – | – |
| COc1ccc2c(c1)C1CC1(S(=O)(=O)N1CC3C[C@H]1CN3C)Cn1c-2c(C2CCCCC2)c2ccc(C(=O)O)cc21 (stereo partly shown) | 20 to 1000 | 20 to 1000 | – | – |
| CCS(=O)(=O)C12CC1c1ccccc1-c1c(C3CCCCC3)c3ccc(C(=O)NS(=O)(=O)N(C)C)cc3n1C2 (stereo not shown) | 20 to 1000 | 20 to 1000 | – | – |
| COc1ccc2c(c1)C1CC1(S(=O)(=O)N(C)CC(=O)N1CCOCC1)Cn1c-2c(C2CCCCC2)c2ccc(C(=O)NS(=O)(=O)N(C)C)cc21 (stereo not shown) | 20 to 1000 | 20 to 1000 | – | – |
| COc1ccc2c(c1)C1CC1(S(=O)(=O)N1C3CCC1CN(C)C3)Cn1c-2c(C2CCCCC2)c2ccc(C(=O)O)cc21 (stereo not shown) | – | – | 20 to 1000 | 20 to 1000 |
| COc1ccc2c(c1)C1CC1(S(=O)(=O)N1CCOCC1)Cn1c-2c(C2CCCCC2)c2ccc(C(=O)NS(=O)(=O)N(C)C)cc21 (stereo not shown) | 20 to 1000 | 20 to 1000 | – | – |
| COc1ccc2c(c1)C1CC1(S(=O)(=O)N(C)CCN(C)C)Cn1c-2c(C2CCCCC2)c2ccc(C(=O)NS(=O)(=O)N(C)C)cc21 (stereo not shown) | 20 to 1000 | 20 to 1000 | – | – |
